We go through twelve compounds from US10704076B2, “Multi-tiered high through-put screen for compounds effective against bacterial biofilm and compounds effective for inhibiting and eradicating bacterial biofilm” (University of Cincinnati, priority 2013, dated 2020).

Common to all, as to format: cell-based, Acinetobacter baumannii
Experiment [1] has as its system A. baumannii biofilm. In words: HTS live biofilm assay (resazurin metabolic activity). Particulars: Acinetobacter baumannii, 10 point dose-response 0.1-50 μM. The source says: (§1) Each HTS tier consisted of: (i) primary screening, (ii) confirmation screening and (iii) dose-response curve screening. Each tier of HTS included three distinct biological process assays. The first assay was an optical density measurement of bacteria growth in the presence of each compound reported as a total bacteria growth. In the second assay, resazurin solution was used as an indicator of metabolic activity to measure the live bacteria in the biofilms, reported as live biofilm. The final assay was crystal violet staining, which indicated the amount of biofilm formation and the effect of each compound on this process, reported as total biofilm formation.
(§2) Briefly, stationary phase bacteria grown in L-broth were diluted 1:200 into fresh L-broth and 50 μM of each test compound. After 20-24 hours, the optical density (OD560) of each suspension was measured using Zeiss Plate::Vision with a 560 BP filter (560 nm, 2.5% light intensity, 1 mm focus to bottom of plate, and exposure time of 100 ms). To measure bacterial viability in the biofilm, 50 μl of a 5 mg/ml resazurin solution in L-broth was added to each well after washing 3 times with 50 μl of PBS. The plates were then incubated at 37° C. for 30 or 180 min for A. baumannii and P. aeruginosa biofilms, respectively. Fluorescence was measured using Zeiss Plate::Vision at excitation and emission wavelengths of 535 and 580 nm, 100 ms exposure time, 2.5% intensity and a 2 mm focus to the bottom of the biofilms. To assess biofilm formation, plates were washed 3 times with PBS and then 50 μl of 0.01% of crystal violet was added to each well to assess bacterial biofilm formation as described in a similar borosilicate tube assay by O'Toole and Kolter. After incubation at room temperature for 30 min and removal of the crystal violet solution by washing with PBS, 95% ethanol was added to solubilize the crystal violet followed by incubation for 20 min at room temperature. Finally, the optical density of each plate was determined using measured by Zeiss Plate::Vision using the same settings used to measure total bacterial growth. These 3 steps were used in each of the three tiers for the HTS process: (i) single point primary screening at 10 μM, (ii) triplicate confirmation of hits from (i) at 10 μM and (iii) determination of AC50 values in 10 point dose-response at a concentration range of 0.1-50 μM) in hits from (ii). The AC50 represents the concentration of compound that inhibits 50% of bacterial growth, bacterial viability, or biofilm formation. Genedata Screener® Assay Analyzer Software (Ver. 9.0.0 Standard) was used to analyze data from all assay tiers. Compounds with an AC50 of less than 20 μM in one of the biological assays from the dose response screen were subject to additional investigation.
On the technique in general: Alamar Blue is a resazurin reagent that responds to reducing activity.

The test system of a further experiment is A. baumannii. Put plainly: HTS total bacterial growth assay (optical density OD560). Particulars: 10 point dose-response 0.1-50 μM, NS* = no sigmoid curve observed; for AC50: Acinetobacter baumannii, read-out: Total Bacteria Growth AC50.
From the text: as §1, §2

For experiment [2], the system named is A. baumannii biofilm. In words: HTS total biofilm formation assay (crystal violet staining). The following applies: Acinetobacter baumannii, 10 point dose-response 0.1-50 μM.
From the text: as §1, §2

Experiment [3] concerns A. baumannii biofilm. In words: CLSM, co-culture of bacteria with compound (inhibition of biofilm formation). The following applies: for killing of residential bacteria, co-culture (CLSM, in words): 10 μM; for Co-culture of bacteria with compound: Killing: CLSM, 10 μM compound, 18 hrs, Y / —. On the procedure:
(§3) Broad spectrum agents (effective against all three bacterial species) and single agent compounds identified as HTS hits were investigated with CLSM confirmation of inhibition of biofilm formation (culture of bacteria with compounds) or killing of bacteria residing within an established biofilm (compound addition after culturing biofilm). To evaluate inhibition of P. aeruginosa biofilms, bacteria were sub-cultured into 10% L-broth and grown at 37° C. until the OD600 reached 0.25. The bacteria were further diluted 1:100 into a modified 0.5×M63 minimum media (50 mM KH2PO4, 7.5 mM (NH4)2SO4, 9 μM FeSO4, 0.5% casamino acids, 0.2% glucose, and 1 mM MgSO4). A. baumannii biofilms were also grown in 10% L-broth until the OD600 reached 0.05 but diluted 1:10 into 5% L-broth media. S. epidermidis biofilm cultures were grown. Briefly, the bacteria were grown in TSB until the OD600 reached 0.75, and a 1:100 dilution of the bacteria was sub-cultured into phosphate buffered saline (PBS). All of the biofilm bacterial cultures were grown in 96-well plate chambers (MatTek Corp., Ashland, Mass.) in the presence of 10 μM of each compound or DMSO as a control and incubated for 18 hrs at 37° C. To investigate the ability of compounds to kill bacteria within pre-existing biofilms, biofilms were grown under the same conditions, but without test compound. These biofilms were washed once with PBS and incubated an additional 24 hr at 37° C. in PBS containing 300 μM of each compound. All biofilm cultures were then washed twice with 100 μL of PBS and stained using the LIVE/DEAD® BacLight™ Bacterial Viability Kit (Invitrogen). Finally, biofilm images were obtained using a Zeiss LSM510 META Confocal Microscope (Carl Zeiss, Inc., Germany). A 488 nm laser was used in conjunction with a Plan-Apochromat 100×/1.4 Oil DIC objective. Z-stacks were 8 bit and measured 127.3 μm×127.3 μm×16.0 μm in size. The filters used were 505-530 and 620-680 IR, as the excitation and emission wavelengths for red fluorescence are 490 nm and 635 nm, respectively, and 480 nm and 500 nm for green fluorescence. Three dimensional images were generated using the “Projection” ability on LSM Image Browser software (v.1.4.0.121) or Zeiss LSM image browser software version 3.5 (Carl Zeiss, Inc., Germany), and Live/Dead calculations were conducted based upon these images using MacBiophotonics ImageJ following the guidelines in the cell counting guide by C. Labno {Rasband, 1997-2011 #25; Labno, #2} at the University of Chicago Integrated Light Microscopy Core. The thickness of the biofilm was calculated using Comstat software. A hit was defined as a >50% dead to live ratio.
(§4) The CLSM experiment was performed in one or two or all bacteria used in this study depending on its activity. For the validation of HTS hits, 10 μM of compound was added to each bacterial suspension and the resulting biofilm stained with LIVE/DEAD® BacLight™ Bacterial Viability Kit. The images were analyzed to determine the live and dead ratios of biofilm bacteria, the thickness of biofilms, and structural attributes of biofilms.

Experiment [4] relates to A. baumannii established biofilm. In words: CLSM, effect of compound on the pre-existing biofilm. Particulars: 24 hr; for killing of established A. baumannii biofilm (CLSM, in words): 300 μM; for Effect of compound on the pre-existing biofilm: Killing: Y / —. The protocol: as §3, §4

“Also recorded” adds a separate entry of the source.

As to `O=C(N/N=C/c1cc(Br)c(O)cc1O)c1cc2c(ccc3ccccc32)o1` [Compound 23, N′-[(E)-(5-Bromo-2,4-dihydroxyphenyl)methylene]naphtho[2,1-b]furan-2-carbohydrazide], the AC50 (usually the concentration at which the activity in the assay is half-maximal) in the experiment on A. baumannii biofilm [1] is 8.97 µM; in the experiment on A. baumannii, over 200 µM; with A. baumannii biofilm [2] it was 17.5 µM.

Turning to `CCCCOC(=O)C(=O)CC(=O)/C=C/c1ccccc1` [Compound 30, Butyl (E)-2,4-dioxo-6-phenylhex-5-enoate], the AC50 in the experiment with A. baumannii biofilm [1] was 2.35 µM; with A. baumannii biofilm [2] it was 8.54 µM. Besides, the “Total Bacteria Growth AC50” value in the experiment with A. baumannii is reported as “NS*”.

For `Nc1nonc1-c1nc2ccccc2n1CC(=O)N/N=C/c1cc(Br)cc(Br)c1O` [Compound 21, 2-[2-(4-amino-1,2,5-oxadiazol-3-yl)-1H-benzimidazol-1-yl]-N′-[(E)-(3,5-dibromo-2-hydroxyphenyl)methylidene]acetohydrazide], the AC50 in the experiment on A. baumannii biofilm [1] turned out to be 9.86 µM; in the experiment with A. baumannii biofilm [2] it was 14.6 µM. Besides, the “Total Bacteria Growth AC50” value with A. baumannii was “NS*”.

`Oc1c(I)cc(I)cc1/C=N/c1ccc2[nH]c(-c3ccccc3)nc2c1` [Compound 31] registered an AC50 in the experiment with A. baumannii biofilm [1] of 17.4 µM. Further, in the experiment on A. baumannii biofilm [3], the “killing of residential bacteria, co-culture (CLSM, in words)” value (“killing of residential bacteria” below) is given as “effective in killing the bacterium” and the “Co-culture of bacteria with compound: Killing” value is reported as “Y (A hit was defined as a >50% dead to live ratio)”. Moreover, the AC50 in the experiment with A. baumannii was over 200 µM. For the same compound, the “killing of established A. baumannii biofilm (CLSM, in words)” value in experiment [4] is given as “demonstrated killing of established biofilm culture; also recorded: demonstrated ability in killing; also recorded: effective against biofilm resident A. baumannii”. Besides, in experiment [4] (CLSM, 300 μM compound), the “Effect of compound on the pre-existing biofilm: Dispersion” value is listed as “did demonstrate dispersion activity” and the “Effect of compound on the pre-existing biofilm: Killing” value (“Effect of compound … Killing” for short) is reported as “Y (A hit was defined as a >50% dead to live ratio)”. Besides, the activity with A. baumannii biofilm [2] was half-maximal at 23.5 µM (AC50).

Regarding `CCCCC(C(=O)N/N=C/c1cc(Br)ccc1O)C(=O)N/N=C/c1cc(Br)ccc1O` [Compound 25, N′1,N′3-Bis [(E)-(5-bromo-2-hydroxyphenyl)methylene]-2-butylmalonohydrazide], the AC50 in the experiment on A. baumannii biofilm [1] was 1.26 µM; in the experiment on A. baumannii, over 200 µM; in the experiment on A. baumannii biofilm [2], 5.11 µM.

On to `O/N=C1/C=Cc2[nH]c(-c3ccccc3)cc2/C1=N/O` [Compound 18, N-(4-nitroso-2-phenyl-1H-indol-5-yl)hydroxylamine], for which the AC50 came out at 4.53 µM with A. baumannii biofilm [1], 17.7 µM in the experiment with A. baumannii and 14.6 µM in the experiment on A. baumannii biofilm [2]. Also, the “killing of residential bacteria” value in the experiment with A. baumannii biofilm [3] is “effective in killing the bacterium”. For the same compound, the “Co-culture of bacteria with compound: Killing” value with A. baumannii biofilm [3] was “Y (A hit was defined as a >50% dead to live ratio)”. The “killing of established A. baumannii biofilm (CLSM, in words)” value in experiment [4] is recorded as “demonstrated killing of established biofilm culture; also recorded: effective against biofilm resident A. baumannii”. Besides, in experiment [4] (CLSM, 300 μM compound), the “Effect of compound … Killing” value was “Y (A hit was defined as a >50% dead to live ratio)”.

`Oc1c(Cl)cc(Cl)c(Cl)c1-c1nc2ccccc2[nH]1` [Compound 29, 2-(1H-benzoimidazol-2-YL)-3,4,6 Trichlrophenol]: the AC50 in the experiment on A. baumannii biofilm [1] was over 200 µM; in the experiment with A. baumannii biofilm [2], 8.37 µM. Further, the “Total Bacteria Growth AC50” value with A. baumannii was “NS*”.

Turning to `Oc1ccc2c(c1O)O[C@@]13NC(=S)N[C@@H](c4ccccc4)[C@H]1CCC[C@H]3[C@H]2c1ccccc1` (relative stereo) [Compound 24, (4R,4aR,7aS,8S,13aR)-rel-3,4,4a,5,6,7,7a,8-octahydro-11,12-dihydroxy-4,8-diphenyl-[1]Benzopyrano[3,2-i]quinazoline-2(1H)-thione], the AC50 with A. baumannii biofilm [1] is 1.13 µM; with A. baumannii it was over 200 µM; in the experiment on A. baumannii biofilm [2], 3.75 µM. In experiment [4], the “killing of established A. baumannii biofilm (CLSM, in words)” value is “demonstrated killing of established biofilm culture; also recorded: effective against biofilm resident A. baumannii”. The “Effect of compound … Killing” value in experiment [4] (CLSM, 300 μM compound) was “Y (A hit was defined as a >50% dead to live ratio)”.

Turning to `Cc1n[nH]c(O)c1C(c1cccc(OCc2ccc(Cl)c(Cl)c2)c1)c1c(C)n[nH]c1O` [Compound 26, 4-[{3-[(3,4-dichlorobenzyl)oxy]phenyl}(5-hydroxy-3-methyl-1H-pyrazol-4-yl)methyl]-3-methyl-1H-pyrazol-5-ol], the AC50 in the experiment with A. baumannii biofilm [1] turned out to be 8.07 µM; in the experiment on A. baumannii biofilm [2], 7.6 µM. For the same compound, in the experiment on A. baumannii, the “Total Bacteria Growth AC50” value was “NS*”. For the same compound, in experiment [4], the “killing of established A. baumannii biofilm (CLSM, in words)” value is recorded as “demonstrated killing of established biofilm culture; also recorded: effective against biofilm resident A. baumannii”. In experiment [4] (CLSM, 300 μM compound), the “Effect of compound … Killing” value is on record as “Y (A hit was defined as a >50% dead to live ratio)”.

For the compound “N-2-(4-methoxybenzothiazolyl)-2,3-dihydro-4-Methyl-5-oxo-1H,5HBenzo[ij]quinolizine-6-carboxamide [Compound 28]”, the “killing of established A. baumannii biofilm (CLSM, in words)” value in experiment [4] is “effective against biofilm resident A. baumannii”.

With `C=CCSC1=NC(C)(C)CC2(CC(c3ccccc3)c3ccc(O)c(O)c3O2)N1` (stereo not shown) [Compound 34, 3,4,5′,6′-tetrahydro-6′,6′-dimethyl-4-phenyl-2′-(2-propen-1-ylthio)-spiro[2H-1-benzopyran-2,4′(3′H)-pyrimidine]-7,8-diol], the “killing of residential bacteria” value with A. baumannii biofilm [3] is reported as “effective in killing the bacterium”. For the same compound, the “killing of established A. baumannii biofilm (CLSM, in words)” value in experiment [4] was “effective against biofilm resident A. baumannii”.

For `O=C(N/N=C/c1ccc(O)cc1O)c1cc(-c2ccccc2)nc2ccccc12` [Compound 33, N′-(2,4-dihydroxybenzylidene)-2-phenylquinoline-4-carbohydrazide], the AC50 was 7.28 µM in the experiment with A. baumannii biofilm [1], over 200 µM in the experiment on A. baumannii and 17.2 µM with A. baumannii biofilm [2].
